Experimental data reported in patent publication US20240368157A1, “FORMS AND COMPOSITIONS OF A JAK2 INHIBITOR” (Ajax Therapeutics, Inc., priority 2023, published 2024).

Experiments:
[1] = Hepatocyte Stability Assay (human hepatocytes); type: in vitro ADME; conditions: cryopreserved hepatocytes, read-out: Human Heps CLint
Protocol: (§1) 10 mM stock solutions of test compound and positive control are prepared in DMSO. Stock solutions are diluted to 100 μM by combining 198 μL of 50% acetonitrile/50% water and 2 μL of 10 mM stock solution. Verapamil is used as positive control in the assay. Vials of cryopreserved hepatocytes are thawed in a 37° C. water bath with gently shaking. The contents are poured into the 50 mL thawing medium conical tube. Vials are centrifuged at 100 g for 10 minutes at room temperature. Thawing medium is aspirated and hepatocytes are re-suspended with serum-free incubation medium to yield ˜1.5×10^6 cells/mL. Cell viability and density are counted using a Trypan Blue exclusion, and then cells are diluted with serum-free incubation medium to a working cell density of 0.5×10^6 viable cells/mL. A portion of the hepatocytes at 0.5×10^6 viable cells/mL are boiled for 5 min prior to adding to the plate as negative control to eliminate the enzymatic activity so that little or no substrate turnover should be observed. Aliquots of 198 μL hepatocytes are dispensed into each well of a 96-well non-coated plate. The plate is placed in the incubator for approximately 10 minutes. Aliquots of 2 μL of the 100 μM test compound and 2 μL positive control are added into respective wells of a non-coated 96-well plate to start the reaction. The final concentration of test compound is 1 μM. […]

[2] = Hepatocyte Stability Assay (rat hepatocytes); type: in vitro ADME; conditions: cryopreserved hepatocytes, read-out: Rat Heps CLint
Protocol: as §1

JAK3 = target: T1, JAK3 (Homo sapiens, UniProt P52333); experiment: JAK Family Selectivity Assay (JAK3 vs JAK2 binding affinity); conditions: selectivity over JAK2
T1 construct: made in house; host or cells: E. coli (BL21-derived, T7 phage display) or HEK-293
T1 sequence (P52333 1-1124): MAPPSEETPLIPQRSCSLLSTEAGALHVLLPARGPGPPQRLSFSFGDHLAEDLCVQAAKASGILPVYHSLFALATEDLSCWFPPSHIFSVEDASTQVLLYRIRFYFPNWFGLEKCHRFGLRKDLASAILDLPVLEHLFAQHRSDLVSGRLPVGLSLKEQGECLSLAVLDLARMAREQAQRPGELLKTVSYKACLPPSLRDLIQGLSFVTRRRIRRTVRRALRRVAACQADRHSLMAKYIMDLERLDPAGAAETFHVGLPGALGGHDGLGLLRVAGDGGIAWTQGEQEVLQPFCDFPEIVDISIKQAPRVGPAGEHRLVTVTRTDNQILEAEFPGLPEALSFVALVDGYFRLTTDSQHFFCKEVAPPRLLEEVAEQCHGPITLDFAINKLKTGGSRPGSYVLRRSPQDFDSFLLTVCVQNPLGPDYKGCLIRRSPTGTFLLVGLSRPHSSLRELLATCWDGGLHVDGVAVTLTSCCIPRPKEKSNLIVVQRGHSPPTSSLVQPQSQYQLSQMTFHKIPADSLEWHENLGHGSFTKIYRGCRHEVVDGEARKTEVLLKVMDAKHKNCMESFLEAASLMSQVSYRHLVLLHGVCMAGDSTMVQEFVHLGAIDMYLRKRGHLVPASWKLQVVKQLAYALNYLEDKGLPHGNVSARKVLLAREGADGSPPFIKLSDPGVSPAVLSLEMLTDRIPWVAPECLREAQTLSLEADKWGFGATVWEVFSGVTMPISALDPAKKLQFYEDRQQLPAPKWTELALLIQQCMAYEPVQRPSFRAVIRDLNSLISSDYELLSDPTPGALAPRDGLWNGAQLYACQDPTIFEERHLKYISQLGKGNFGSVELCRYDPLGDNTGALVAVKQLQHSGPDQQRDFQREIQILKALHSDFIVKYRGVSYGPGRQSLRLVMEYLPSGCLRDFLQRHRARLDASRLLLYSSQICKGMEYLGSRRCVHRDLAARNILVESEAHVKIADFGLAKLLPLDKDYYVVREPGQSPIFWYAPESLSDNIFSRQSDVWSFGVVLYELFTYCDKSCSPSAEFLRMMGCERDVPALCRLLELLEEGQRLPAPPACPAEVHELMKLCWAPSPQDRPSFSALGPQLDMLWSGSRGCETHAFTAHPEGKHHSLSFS
Protocol: Provided compounds are evaluated for selectivity by comparing their JAK2 binding affinity (Kd) in the above JAK2 Binding Assay with their binding affinity (Kd) for one or more other kinases. Binding affinity for other kinases is determined as follows: Kinase-tagged T7 phage strains are prepared in an E. coli host derived from the BL21 strain. E. coli are grown to log-phase and infected with T7 phage and incubated with shaking at 32° C. until lysis. The lysates are centrifuged and filtered to remove cell debris. The remaining kinases are produced in HEK-293 cells and subsequently tagged with DNA for qPCR detection. Streptavidin-coated magnetic beads are treated with biotinylated small molecule ligands for 30 minutes at room temperature to generate affinity resins for kinase assays. The liganded beads are blocked with excess biotin and washed with blocking buffer (SeaBlock (Pierce), 1% BSA, 0.05% Tween 20, 1 mM DTT) to remove unbound ligand and to reduce non-specific binding. Binding reactions are assembled by combining kinases, liganded affinity beads, and test compounds in 1× binding buffer (20% SeaBlock, 0.17×PBS, 0.05% Tween 20, 6 mM DTT). Test compounds are prepared as 111× stocks in 100% DMSO. Kds are determined using an 11-point 3-fold compound dilution series with three DMSO control points. […] The kinase concentration in the eluates is measured by qPCR. […]

| CLint scaled at 1 μM [1] | CLint scaled at 1 μM [2] | JAK3/JAK2 Kd/Kd ratio (JAK3) | SMILES |
| --- | --- | --- | --- |
| ≤ 0.36 L/h/kg | 1.02 to 2.1 L/h/kg | A (Kd/Kd ratio≥1000) | CN(C)C(=O)Nc1cc(Oc2cnc3nc(Nc4cc(C(F)(F)F)cn(C)c4=O)n(C)c3c2C#N)ccn1 [Compound 1, 3-(4-((7-cyano-1-methyl-2-((1-methyl-2-oxo-5-(trifluoromethyl)-1,2-dihydropyridin-3-yl)amino)-1H-imidazo[4,5-b]pyridin-6-yl)oxy)pyridin-2-yl)-1,1-dimethylurea] |
| 0.72 to 1.2 L/h/kg | 2.1 to 2.7 L/h/kg | A (Kd/Kd ratio≥1000) | CCN1CCN(Cc2ccc(Nc3nc4ccc(Oc5ccnc(NC(C)=O)c5)cc4n3C)cc2C(F)(F)F)CC1 [Compound R-1, reference compound] |
